Data from PMC6940745 (International Journal of Molecular Sciences, 2019).
Where a SMILES comes first, the peptide text is derived from it. [ ]: non-standard residue; d: D form. The star is where a group is joined. Bz = O=C(c1ccccc1)*; NPr2 = CCCN(CCC)*

Columns and labels:
Nrf2 (phospho S40) = assay: Nrf2 serine 40 phosphorylation in skin explants after UVA-irradiation; format: cell-based, human; details: p < 0.05 vs UVA-irradiated vehicle control
Experimental: On an abdominoplasty coming from a person with Fitzpatrick phototype II, skin explants of an average diameter of 11 mm were prepared after obtaining written informed consent. The explants were kept in culture medium at 37 °C in a humid, 5% CO2 atmosphere. The peptide was applied topically and spread using a small spatula on day 0 (D0), D1, D2, and D3. […] On day 3, explants were irradiated with UVA (13.5 J/cm^2 equal to 3 minimal erythemal doses (MED)) using a Vilbert Lourmat solar simulator RMX 3W. For the UV irradiation, the explants were transferred into 1 mL of HBSS (Hank’s buffered salt solution) medium. The non-irradiated batches were kept in 1 mL of HBSS medium. After the UV exposure, all the explants were put in fresh Bio-EC’s explant medium (BEM medium). The products were applied on the explants 3 h before and just after UVA irradiation. Twenty-four hours after UVA irradiation, the tissues were harvested and processed for histology. After fixation for 24 h in buffered formalin, the samples were dehydrated and impregnated in paraffin using a Leica TP 1010 dehydration automat. The samples were embedded using a Leica EG 1160 embedding station. Sections 5 µm thick were made using a Leica RM 2125 Minot-type microtome, and the sections were mounted on Superfrost® histological glass slides (Thermo Fisher Scientific, Waltham, MA, USA). […]

MC3R = biological target: T1, MC3R (Homo sapiens, UniProt P41968); assay: MC3R activation, cAMP HTRF assay in CHO-K1 cells; format: cell-based; details: eight concentrations, 0.01 to 100,000 nM
T1 construct: host or cells: CHO-K1
Experimental: (§1) MCR-activation assays were performed by means of a cAMP HTRF (homogeneous time resolved fluorescence) assay for Gs-coupled receptors (cAMP Gs dynamic kit, Cisbio bioassays, 62AM4PEC). CHO-K1 cells expressing human recombinant MC1 receptor (EuroscreenFast, Gosselies, Belgium) (or MC2R, MC3R, MC4R, MC5R) were grown prior to the test in media without antibiotic. They were detached by gentle flushing with PBS-EDTA (5 mM EDTA), recovered by centrifugation, and resuspended in assay buffer (5 mM KCl, 1.25 mM MgSO4, 124 mM NaCl, 25 mM HEPES, 13.3 mM Glucose, 1.25 mM KH2PO4, 1.45 mM CaCl2, 0.5 g/L BSA, supplemented with 1 mM IBMX). Dose response curves were performed in parallel with the reference compounds. For agonist test (96-well), 12 µL of cells were mixed with 12 µL of the test compound diluted at increasing concentrations in assay buffer, and then incubated for 30 min at room temperature. After addition of the lysis buffer and 1 h incubation, fluorescence signal was measured, according to the manufacturer’s specifications, with the homogeneous time resolved fluorescence (HTRF) kit.

TYRP-1 = TYRP-1 protein expression in human skin ex vivo (immunohistochemistry); format: cell-based; details: topical 30, 100 and 200 µM, six days; p < 0.05
Experimental: (§2) Following declaration of Helsinki principles (DoH-Oct2013, World Medical Association, Ferney-Voltaire, France), human skin samples were obtained from elective plastic surgery after informed consent was obtained. For the two experiments shown in Figure 2, Figure 3 and Figure 4, we had one person with an individual topology angle (ITA°) of 18, and one person with an ITA° of 39 [69]. The skin samples were cut in pieces of 8 × 3 mm and cultured up to day 6. Skin samples were cultured in an air–liquid interface in a perforated ring of stainless steel in contact with culture medium (modified Williams’ E medium). The culture medium was renewed every three days (i.e., day 0–3). Compounds were added daily in DMSO at 4 µL volume. At day 6, the skin samples were fixed in formalin, embedded in paraplast, and cut at the microtome for histochemical staining and consequent image analysis. Six skin biopsies were used for each single treatment.
Twelve skin sections from the ex vivo melanogenesis experiment above were immunoassayed with the selected antibodies (TYR, Thermo Scientific #MS-800-P0 (Thermo Scientific, Waltham, MA, USA); TYRP-1, Covance #SIG-38150 (Covance Inc., Princeton, NJ, USA), MITF, Abcam #ab80651 (Abcam plc, Cambridge, UK). The number of positive cells within the epidermis was counted and the value was normalized upon the length of the basal lamina, thus obtaining a score. […]

[1] = biological target: T2, human recombinant MC1 receptor (Homo sapiens, UniProt Q01726); assay: MC1R activation, cAMP HTRF assay in CHO-K1 cells; format: cell-based
T2 construct: host or cells: CHO-K1
Experimental: as §1

[2] = tested on: human abdominal skin ex vivo; assay: Stimulation of pigmentation in human abdominal skin ex vivo (Fontana-Masson melanin quantification); format: cell-based; details: topical
Experimental: as §2
Two skin biopsies for each treatment were weighed and, in each case, reduced in the dermal portion, in order to have approximately the same weight for all of them. Samples were then washed and processed with methylthiazolyldiphenyl-tetrazolium bromide (MTT). The color intensity, that is directly proportional to skin vitality, was measured with a plate reader at a wavelength of 570 nm. For melanin quantification, skin sections were stained with a modified Fontana-Masson stain that dyes melanin argentaffin granules in black/dark grey. The amount of melanin present in each slide was evaluated by estimating grey intensity and distribution within the sections using ImageJ application (NIH-USA). Two slides of each skin sample were processed by image acquisition and related analysis (i.e., 12 images for each treatment).
Figure 2 Stimulation of pigmentation by MC1R-agonist peptides ex vivo. Melanin was quantified on skin sections using ImageJ software (NIH, USA). Human abdominal skin was topically treated with peptides at various concentrations for six days. * p < 0.05 vs vehicle by unpaired Student’s t-test. […]

MC5R = biological target: T3, MC5R (Homo sapiens, UniProt P33032); assay: MC5R activation, cAMP HTRF assay in CHO-K1 cells; format: cell-based
T3 construct: host or cells: CHO-K1
Experimental: as §1

T3 sequence (P33032 whole entry): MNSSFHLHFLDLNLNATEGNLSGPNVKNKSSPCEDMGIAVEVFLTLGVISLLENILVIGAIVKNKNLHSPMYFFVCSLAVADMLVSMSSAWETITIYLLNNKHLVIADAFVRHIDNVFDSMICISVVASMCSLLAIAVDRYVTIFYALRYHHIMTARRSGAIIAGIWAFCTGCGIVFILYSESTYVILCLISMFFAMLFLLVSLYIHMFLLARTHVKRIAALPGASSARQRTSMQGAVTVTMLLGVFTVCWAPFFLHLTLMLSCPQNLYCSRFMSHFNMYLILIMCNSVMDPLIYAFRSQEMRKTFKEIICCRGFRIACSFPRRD
T1 sequence (P41968 whole entry): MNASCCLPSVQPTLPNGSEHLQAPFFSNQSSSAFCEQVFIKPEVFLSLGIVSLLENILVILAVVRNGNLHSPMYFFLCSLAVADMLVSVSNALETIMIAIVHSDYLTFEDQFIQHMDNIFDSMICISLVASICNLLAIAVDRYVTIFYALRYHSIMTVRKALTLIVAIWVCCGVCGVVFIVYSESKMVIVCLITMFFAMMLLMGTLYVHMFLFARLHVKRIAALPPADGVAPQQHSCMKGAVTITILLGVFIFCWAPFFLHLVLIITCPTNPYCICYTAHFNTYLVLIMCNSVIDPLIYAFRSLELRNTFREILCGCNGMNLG
T2 sequence (Q01726 whole entry): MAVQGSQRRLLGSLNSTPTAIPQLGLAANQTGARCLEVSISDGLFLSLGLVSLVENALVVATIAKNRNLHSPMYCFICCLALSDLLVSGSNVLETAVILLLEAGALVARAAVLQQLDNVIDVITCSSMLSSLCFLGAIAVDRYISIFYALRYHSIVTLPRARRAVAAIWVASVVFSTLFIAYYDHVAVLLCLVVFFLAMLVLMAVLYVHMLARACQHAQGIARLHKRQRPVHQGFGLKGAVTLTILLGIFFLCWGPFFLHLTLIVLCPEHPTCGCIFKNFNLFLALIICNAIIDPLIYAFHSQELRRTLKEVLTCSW

Structure (SMILES): CCCN(CCC)C(=O)[C@@H](Cc1c[nH]c2ccccc12)NC(=O)[C@H](CCCNC(=N)N)NC(=O)[C@@H](Cc1ccccc1)NC(=O)[C@H](Cc1c[nH]cn1)NC(=O)CNC(=O)c1ccccc1 [Peptide 4] (Bz-GH[dF]R[dW]-NPr2)
- Induction of Nrf2 phosphorylation on serine 40 (Nrf2 (phospho S40)): up to 161%
- EC50 (MC3R): 877 nM
- Maximal induction of TYRP-1 protein expression vs vehicle (TYRP-1): 72%
- EC50 [1]: 0.42 nM
- Stimulation of pigmentation compared to vehicle-treated control tissue ([2]; 200 µM peptide, six days): up to 21%
- Concentration of optimal activity for pigmentation enhancement ([2]; human abdominal skin ex vivo): 30 µM
- EC50 (MC5R; eight concentrations, 0.01 to 100,000 nM): > 100000 nM
- Activation of MC5R (MC5R; up to 100 µM): no significant activation
